Test results as given in patent publication US9333202B2, “Non-retinoid antagonists for treatment of age-related macular degeneration and stargardt disease” (THE TRUSTEES OF COLUMBIA UNIVERSITY IN THE CITY OF NEW YORK, priority 2012, dated 2016).
“Also recorded” adds a separate entry of the source.

Legend:
[1] = system: lipofuscin bisretinoids (A2E, A2-DHP-PE, atRAL di-PE); assay: Bisretinoid (lipofuscin fluorophore) levels in eyecups of Abca4−/− mice by HPLC; type: in vivo, mouse
Excerpt: The Abca4−/− mouse model manifests accelerated accumulation of lipofuscin in the RPE and is considered a pre-clinical efficacy model for a drug reducing lipofuscin accumulation. […] There was approximately a 70% reduction in the serum RBP4 level in treated animals (FIG. 11). Additionally, it was discovered that that the levels of A2E/isoA2E and other bisretinoids were reduced by approximately 50% in treated mice (FIG. 12).
Abca4/Abcr null mutant mice (albino) homozygous for Rpe65-Leu450 are bred genotyped and housed. Posterior eyecups of mice and RPE/choroids harvested from human donor eyes (National Disease Research Interchange, Philadelphia Pa.) are homogenized in phosphate buffered saline (PBS) using a glass tissue grinder and extracted in chloroform/methanol (2:1). Extracts are subsequently filtered through cotton and passed through a reverse phase cartridge (C8 Sep-Pak, Millipore) with 0.1% TFA (Aldrich Chemical Company, Milwaukee, Wis.) in methanol. […] An Alliance system (Waters, Corp, Milford, Mass.) equipped with 2695 Separation Module, 2996 Photodiode Array Detector, a 2475 Multi λ Fluorescence Detector and operating with Empower® software is used for HPLC analysis. […] HPLC quantification is carried out using the Empower® software to determine peak areas. […] Molar quantity per murine eye is determined using calibration curves constructed from known concentrations of purified external standards and by normalizing to the ratio of the HPLC injection volume (10 μL) versus total extract volume. […]
Following euthanasia, posterior eye cups were pooled and homogenized in PBS using a tissue grinder. […] For quantification of bisretinoids of RPE lipofuscin, a Waters Alliance 2695 HPLC system was employed with an Atlantis dC18 column (Waters, 4.6 mm×150 mm, 3 μm) and the following gradient of acetonitrile in water (containing 0.1% trifluoroacetic acid): 90 to 100% from 0 to 10 min and 100% acetonitrile from 10 to 20 min, with a flow rate of 0.8 mL/min with monitoring at 430 nm. […] Levels of bisretinoid were determined by reference to external standards of HPLC-purified compound. […]

[2] = system: ERG b-wave; assay: ERG b-wave after photobleaching; conditions: in vivo
[3] = system: insulin sensitivity; conditions: mouse diabetes models; cited from earlier work
[4] = biological target: RBP4-TTR interaction (Homo sapiens, UniProt P02753); assay: HTRF/TR-FRET assay for retinol-dependent RBP4-TTR interaction (1 μM retinol); type: biochemical; set-up: human RBP4 fragment (amino acids 19-201) was expressed in the Gold(DE3)pLysS E. coli strain; made in house; host or cells: E. coli Gold(DE3)pLysS (Stratagene), pMAL-c4x vector
Excerpt: Bacterially expressed MBP-RBP4 and untagged TTR were used in this assay. For the use in the TR-FRET assay the maltose binding protein (MBP)-tagged human RBP4 fragment (amino acids 19-201) was expressed in the Gold(DE3)pLysS E. coli strain (Stratagene) using the […] vector. Following cell lysis, recombinant RBP4 was purified from the soluble fraction using the ACTA FPLC system (GE Healthcare) equipped with the 5-ml the MBP Trap HP column. Human untagged TTR was purchased from Calbiochem. Untagged TTR was labeled directly with Eu^3+ Cryptate-NHS using the HTRF Cryptate Labeling kit from CisBio following the manufacturer's recommendations. HTRF assay was performed in white low volume 384 well plates (Greiner-Bio) in a final assay volume of 16 μl per well. The reaction buffer contained 10 mM Tris-HCl pH 7.5, 1 mM DTT, 0.05% NP-40, 0.05% Prionex, 6% glycerol, and 400 mM KF. Each reaction contained 60 nM MBP-RBP4 and 2 nM TTR-Eu along with 26.7 nM of anti-MBP antibody conjugated with d2 (Cisbio). Titration of test compounds in this assay was conducted in the presence of 1 μM retinol. All reactions were assembled in the dark under dim red light and incubated overnight at +4° C. wrapped in aluminum foil. TR-FRET signal was measured in the SpectraMax M5e Multimode Plate Reader (Molecular Device). Fluorescence was excited at 337 nm and two readings per well were taken: Reading 1 for time-gated energy transfer from Eu(K) to d2 (337 nm excitation, 668 nm emission, counting delay 75 microseconds, counting window 100 microseconds) and Reading 2 for Eu(K) time-gated fluorescence (337 nm excitation, 620 nm emission, counting delay 400 microseconds, counting window 400 microseconds). The TR-FRET signal was expressed as the ratio of fluorescence intensity: Flu665/Flu620×10,000.

[5] = treated mice, oral 30 mg/kg (Example 3)

Question: With `O=C(O)c1ccccc1NC(=O)N1CCC(c2ccccc2C(F)(F)F)CC1` [Compound 1, 2(4-(2-(trifluoromethyl)phenyl)piperidine-1-carboxamido)benzoic acid] as the compound, how does the “Effect on bisretinoid accumulation (in words)” value ([1]; Abca4−/− mouse model of excessive lipofuscinogenesis) read?
Answer: inhibits bisretinoid accumulation

Question: What about the “Levels of A2-DHP-PE and atRAL di-PE” value [1, 5] of the same compound?
Answer: also reduced

Question: And the “Reduction of levels of A2E/isoA2E and other bisretinoids” value [1, 5]?
Answer: approximately 50%

Question: And the “Effect on ERG b-wave after photobleaching” value [2]?
Answer: does not reduce ERG b-wave after photobleaching

Question: What about the “Effect on insulin sensitivity” value [3] of the same compound?
Answer: did not improve insulin sensitivity

Question: What about the “Antagonism of RBP4-TTR interaction in vitro (in words)” value [4] of the same compound?
Answer: antagonize retinol-dependent RBP4-TTR interaction; also recorded: disrupt retinol-induced RBP4-TTR interaction; also recorded: antagonize RBP4-TTR interaction in vitro at biologically significant concentrations
